According to publication PMC4862170, “Genomic screens identify a new phytobacterial microbe-associated molecular pattern and the cognate Arabidopsis receptor-like kinase that mediates its immune elicitation” (Genome Biology, 2016):
Where no end group is shown, it is not given here.

Target: T1, XPS1 ectodomain (Arabidopsis thaliana, UniProt Q9SD62)
T1 construct: The extracellular domain of XPS1 (amino acids 36-650) was cloned by ligation independent cloning; made in house; host or cells: Hi5 insect cells, baculovirus (pMelBac B)
T1 sequence (Q9SD62 36-650): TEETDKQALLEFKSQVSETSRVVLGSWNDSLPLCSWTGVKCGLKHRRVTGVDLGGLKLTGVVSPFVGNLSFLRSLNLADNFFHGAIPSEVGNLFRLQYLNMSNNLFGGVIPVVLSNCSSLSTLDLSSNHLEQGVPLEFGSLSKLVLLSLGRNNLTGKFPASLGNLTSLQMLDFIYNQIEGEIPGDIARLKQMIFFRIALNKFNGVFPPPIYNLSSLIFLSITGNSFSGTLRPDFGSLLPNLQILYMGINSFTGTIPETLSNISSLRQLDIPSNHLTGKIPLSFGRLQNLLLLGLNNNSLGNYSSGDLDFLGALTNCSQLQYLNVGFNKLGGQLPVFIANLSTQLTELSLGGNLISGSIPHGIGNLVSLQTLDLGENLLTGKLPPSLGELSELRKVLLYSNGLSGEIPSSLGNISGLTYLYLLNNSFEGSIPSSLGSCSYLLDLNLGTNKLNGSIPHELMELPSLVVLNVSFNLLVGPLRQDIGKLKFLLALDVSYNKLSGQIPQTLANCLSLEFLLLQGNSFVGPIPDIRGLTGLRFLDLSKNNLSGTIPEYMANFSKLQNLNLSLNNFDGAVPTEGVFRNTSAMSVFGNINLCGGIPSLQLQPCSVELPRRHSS
Experiment: biochemical
Assay type: binding
Experimental: For XPS1 expression in Hi5 cells, the ectodomain of XPS1 (36-650) was inserted into the baculovirus transfer vector pMelBac B (Invitrogen). The extracellular domain of XPS1 (amino acids 36-650) was cloned by ligation independent cloning between the existing Honey bee melettin signal sequence and the C-terminal Strep II-9x His tag. […] The StrepII-9x His fused XPS1 ectodomain was produced by secreted expression in baculovirus-infected insect cells, harvested 72 h post infection and purified by Ni-NTA affinity chromatography (Qiagen). The samples were processed twice with a Superdex 200 16/60 column (GE Healthcare) pre-equilibrated with 10 mM Bis-Tris pH 6.0, 150 mM NaCl. Protein purity was checked by SDS-PAGE.
The XPS1 ectodomain was kept at a constant concentration (0.5 μM) in a buffer containing 10 mM Bis-Tris pH6, 150 mM NaCl, 5 % glycerol and 0.01 % Tween, whereas varying peptide concentrations were added. Approximately 4–6 μL of each sample was loaded in a fused silica capillary (NanoTemper Technologies). Measurements were performed at room temperature in a Monolith NT.label free instrument at a constant LED power of 20 and MST power of 60 %. Measurements were performed repeatedly on two independent protein preparations to ensure reproducibility. […] Curve fitting was performed by using the NT affinity analysis software from Nanotemper.

How did the “Apparent EC50 range of XPS1 for peptide” value turn out when LIPEGKVAVTTTQAATERKPLEQPR [xup25] was run?
The value was “in the high nM range”.

What about the EC50 of the same sequence?
Its EC50 is 0.381 µM.

And the “Overall KD of XPS1 binding” value?
The value was “not able to calculate an accurate overall KD”.

What does the source list for “QRLSTGSRINSAKDDAAGLQIA [flg22, reference compound]”?
EC50 of binding to XPS1 ECD (additional replicate (Figure S7), XPS1 ECD 0.5 μM, pH6, MST power 60 %, NT affinity analysis): could not be fitted using the EC50 fit; Kd (read-out: KD of binding to XPS1 ECD): 13.1 µM
